Target: dipeptidyl peptidase 4 (DPP4) (Homo sapiens, UniProt P27487)
Assay: protease activity profiling assay (BPS Bioscience service), […]~[…] compound in […] DMSO
Type: biochemical

dipeptidyl peptidase 4 (DPP4), sequence (P27487 39-766): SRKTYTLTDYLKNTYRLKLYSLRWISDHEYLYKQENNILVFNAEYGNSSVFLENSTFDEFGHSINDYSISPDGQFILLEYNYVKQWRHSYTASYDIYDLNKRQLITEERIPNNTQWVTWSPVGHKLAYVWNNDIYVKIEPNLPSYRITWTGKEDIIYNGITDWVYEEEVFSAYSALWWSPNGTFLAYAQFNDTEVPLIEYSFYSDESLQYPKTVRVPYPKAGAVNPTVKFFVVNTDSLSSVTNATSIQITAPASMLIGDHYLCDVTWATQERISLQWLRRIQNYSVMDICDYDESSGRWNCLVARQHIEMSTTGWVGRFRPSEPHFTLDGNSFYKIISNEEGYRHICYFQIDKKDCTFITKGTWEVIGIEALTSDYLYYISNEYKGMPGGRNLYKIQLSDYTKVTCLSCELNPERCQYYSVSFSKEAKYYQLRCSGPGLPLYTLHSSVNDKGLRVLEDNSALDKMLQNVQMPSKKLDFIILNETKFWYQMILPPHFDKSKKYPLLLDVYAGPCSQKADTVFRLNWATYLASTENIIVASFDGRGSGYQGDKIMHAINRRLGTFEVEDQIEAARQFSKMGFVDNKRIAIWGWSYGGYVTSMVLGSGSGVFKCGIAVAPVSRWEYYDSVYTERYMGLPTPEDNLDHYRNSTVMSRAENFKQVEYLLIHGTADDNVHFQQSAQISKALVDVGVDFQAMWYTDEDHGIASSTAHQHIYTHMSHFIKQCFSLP

**Q.** `O=C(Nc1cc(C(F)(F)F)cc(C(F)(F)F)c1)c1cc(Cl)ccc1O` [IMD-0354, N-(3,5-Bis-trifluoromethylphenyl)-5-chloro-2-hydroxybenzamide] was tested. Which IC50 did it give?
**A.** The IC50 was 9.2 µM.

Source: PMC6620293, “Anti-cancer activity of the novel 2-hydroxydiarylamide derivatives IMD-0354 and KRT1853 through suppression of cancer cell invasion, proliferation, and survival mediated by TMPRSS4” (Scientific Reports, 2019)
